Test results reported in ChEMBL document CHEMBL3045420, “Regulation of glycogen metabolism by anti-dyslipidemic action of gemfibrozil and cholestyramine in a dyslipidemic-diabetic hamster model” (2008).

Assays:
Syrian golden hamster [1] = assay: Antidyslipidemic activity in Mesocricetus auratus (Syrian golden hamster) high fat diet-induced dyslipidemic-diabetic model assessed as reduction of triglyceride level in plasma at 500 mg/kg, po qd for 10 days relative to control; format: functional
Syrian golden hamster [2] = assay: Antidyslipidemic activity in Mesocricetus auratus (Syrian golden hamster) high fat diet-induced dyslipidemic-diabetic model assessed as increase of glucose-6-phosphatase in liver by measuring […] release per mg of protein at 500 mg/kg, po qd for 10 days relative to control; format: functional
Syrian golden hamster [3] = assay: Antidyslipidemic activity in Mesocricetus auratus (Syrian golden hamster) high fat diet-induced dyslipidemic-diabetic model assessed as reduction of nonesterfied fatty acid level in plasma at 500 mg/kg, po qd for 10 days relative to control; format: functional
Syrian golden hamster [4] = assay: Antidyslipidemic activity in Mesocricetus auratus (Syrian golden hamster) high fat diet-induced dyslipidemic-diabetic model assessed as reduction of phospholipid level in liver at 500 mg/kg, po qd for 10 days relative to control; format: functional
Syrian golden hamster [5] = assay: Antidyslipidemic activity in Mesocricetus auratus (Syrian golden hamster) high fat diet-induced dyslipidemic-diabetic model assessed as decrease of LHD in muscle by measuring […] oxidation at 500 mg/kg, po qd for 10 days relative to control; format: functional
Syrian golden hamster [6] = assay: Antidyslipidemic activity in Mesocricetus auratus (Syrian golden hamster) high fat diet-induced dyslipidemic-diabetic model assessed as effect on glycogen synthase in muscle by measuring sodium pyruvate release at 500 mg/kg, po qd for 10 days relative to control; format: functional
Syrian golden hamster [7] = assay: Antidyslipidemic activity in Mesocricetus auratus (Syrian golden hamster) high fat diet-induced dyslipidemic-diabetic model assessed as increase of cholesterol fecal excretion at 500 mg/kg, po qd for 10 days relative to control; format: functional, Feces
Syrian golden hamster [8] = assay: Antidyslipidemic activity in Mesocricetus auratus (Syrian golden hamster) high fat diet-induced dyslipidemic-diabetic model assessed as increase of deoxycholic acid fecal excretion at 500 mg/kg, po qd for 10 days relative to control; format: functional, Feces
Syrian golden hamster [9] = assay: Antidyslipidemic activity in Mesocricetus auratus (Syrian golden hamster) high fat diet-induced dyslipidemic-diabetic model assessed as increase of cholic acid fecal excretion at 500 mg/kg, po qd for 10 days relative to control; format: functional, Feces
Syrian golden hamster [10] = assay: Antidyslipidemic activity in Mesocricetus auratus (Syrian golden hamster) high fat diet-induced dyslipidemic-diabetic model assessed as effect on glycogen synthase in liver by measuring sodium pyruvate release at 500 mg/kg, po qd for 10 days relative to control; format: functional
Syrian golden hamster [11] = assay: Antidyslipidemic activity in Mesocricetus auratus (Syrian golden hamster) high fat diet-induced dyslipidemic-diabetic model assessed as increase of insulin secretion per ml of plasma at 500 mg/kg, po qd for 10 days relative to control; format: functional
Syrian golden hamster [12] = assay: Antidyslipidemic activity in Mesocricetus auratus (Syrian golden hamster) high fat diet-induced dyslipidemic-diabetic model assessed as reduction of total cholesterol level in plasma at 500 mg/kg, po qd for 10 days relative to control; format: functional
Syrian golden hamster [13] = assay: Antidyslipidemic activity in Mesocricetus auratus (Syrian golden hamster) high fat diet-induced dyslipidemic-diabetic model assessed as reduction of phospholipid level in muscle at 500 mg/kg, po qd for 10 days relative to control; format: functional
Syrian golden hamster [14] = assay: Antidyslipidemic activity in Mesocricetus auratus (Syrian golden hamster) high fat diet-induced dyslipidemic-diabetic model assessed as increase of lipase activity in muscle at 500 mg/kg, po qd for 10 days relative to control; format: functional
Syrian golden hamster [15] = assay: Antidyslipidemic activity in Mesocricetus auratus (Syrian golden hamster) high fat diet-induced dyslipidemic-diabetic model assessed as increase of lipase activity in liver at 500 mg/kg, po qd for 10 days relative to control; format: functional
Syrian golden hamster [16] = assay: Antidyslipidemic activity in Mesocricetus auratus (Syrian golden hamster) high fat diet-induced dyslipidemic-diabetic model assessed as increase of glucose-6-phosphate level in muscle at 500 mg/kg, po qd for 10 days relative to control; format: functional
Syrian golden hamster [17] = assay: Antidyslipidemic activity in Mesocricetus auratus (Syrian golden hamster) high fat diet-induced dyslipidemic-diabetic model assessed as reduction of glycerol level in plasma at 500 mg/kg, po qd for 10 days relative to control; format: functional
Syrian golden hamster [18] = assay: Antidyslipidemic activity in Mesocricetus auratus (Syrian golden hamster) high fat diet-induced dyslipidemic-diabetic model assessed as increase of glucose-6-phosphate level in liver at 500 mg/kg, po qd for 10 days relative to control; format: functional
Syrian golden hamster [19] = assay: Antidyslipidemic activity in Mesocricetus auratus (Syrian golden hamster) high fat diet-induced dyslipidemic-diabetic model assessed as increase of cholesterylesters fecal excretion at 500 mg/kg, po qd for 10 days relative to control; format: functional, Feces
Syrian golden hamster [20] = assay: Antidyslipidemic activity in Mesocricetus auratus (Syrian golden hamster) high fat diet-induced dyslipidemic-diabetic model assessed as reduction of total cholesterol level in liver at 500 mg/kg, po qd for 10 days relative to control; format: functional
Syrian golden hamster [21] = assay: Antidyslipidemic activity in Mesocricetus auratus (Syrian golden hamster) high fat diet-induced dyslipidemic-diabetic model assessed as increase of nonesterfied fatty acid fecal excretion at 500 mg/kg, po qd for 10 days relative to control; format: functional, Feces
Syrian golden hamster [22] = assay: Antidyslipidemic activity in Mesocricetus auratus (Syrian golden hamster) high fat diet-induced dyslipidemic-diabetic model assessed as reduction of triglyceride level in liver at 500 mg/kg, po qd for 10 days relative to control; format: functional
Syrian golden hamster [23] = assay: Antidyslipidemic activity in Mesocricetus auratus (Syrian golden hamster) high fat diet-induced dyslipidemic-diabetic model assessed as reduction of glucose level in plasma at 500 mg/kg, po qd for 10 days relative to control; format: functional
Syrian golden hamster [24] = assay: Antidyslipidemic activity in Mesocricetus auratus (Syrian golden hamster) high fat diet-induced dyslipidemic-diabetic model assessed as reduction of total cholesterol level in muscle at 500 mg/kg, po qd for 10 days relative to control; format: functional
Syrian golden hamster [25] = assay: Antidyslipidemic activity in Mesocricetus auratus (Syrian golden hamster) high fat diet-induced dyslipidemic-diabetic model assessed as increase of glycogen phosphorylase in liver by measuring […] release per mg of protein at 500 mg/kg, po qd for 10 days relative to control; format: functional
Syrian golden hamster [26] = assay: Antidyslipidemic activity in Mesocricetus auratus (Syrian golden hamster) high fat diet-induced dyslipidemic-diabetic model assessed as increase of glycogen phosphorylase in muscle by measuring […] release per mg of protein at 500 mg/kg, po qd for 10 days relative to control; format: functional
Syrian golden hamster [27] = assay: Antidyslipidemic activity in Mesocricetus auratus (Syrian golden hamster) high fat diet-induced dyslipidemic-diabetic model assessed as decrease of LHD in liver by measuring […] oxidation at 500 mg/kg, po qd for 10 days relative to control; format: functional
Syrian golden hamster [28] = assay: Antidyslipidemic activity in Mesocricetus auratus (Syrian golden hamster) high fat diet-induced dyslipidemic-diabetic model assessed as increase of glycogen level in muscle at 500 mg/kg, po qd for 10 days relative to control; format: functional
Syrian golden hamster [29] = assay: Antidyslipidemic activity in Mesocricetus auratus (Syrian golden hamster) high fat diet-induced dyslipidemic-diabetic model assessed as increase of hexokinase in muscle by measuring […] release per mg of protein at 500 mg/kg, po qd for 10 days relative to control; format: functional
Syrian golden hamster [30] = assay: Antidyslipidemic activity in Mesocricetus auratus (Syrian golden hamster) high fat diet-induced dyslipidemic-diabetic model assessed as reduction of triglyceride level in muscle at 500 mg/kg, po qd for 10 days relative to control; format: functional
Syrian golden hamster [31] = assay: Antidyslipidemic activity in Mesocricetus auratus (Syrian golden hamster) high fat diet-induced dyslipidemic-diabetic model assessed as increase of triglyceride fecal excretion at 500 mg/kg, po qd for 10 days relative to control; format: functional, Feces
Syrian golden hamster [32] = assay: Antidyslipidemic activity in Mesocricetus auratus (Syrian golden hamster) high fat diet-induced dyslipidemic-diabetic model assessed as reduction of lipolysis in adipose tissue at 500 mg/kg, po qd for 10 days relative to control; format: functional; parameters: scale not given: the % may be the effect or the level left
Syrian golden hamster [33] = assay: Antidyslipidemic activity in Mesocricetus auratus (Syrian golden hamster) high fat diet-induced dyslipidemic-diabetic model assessed as increase of glycogen level in liver at 500 mg/kg, po qd for 10 days relative to control; format: functional

Cc1ccc(C)c(OCCCC(C)(C)C(=O)O)c1 [GEMFIBROZIL]
Activity (Syrian golden hamster [1]): 220.86 mg/dL | Activity (Syrian golden hamster [2]): 0.345 µM/min | Activity (Syrian golden hamster [3]): 1.56 µmol/dL | Activity (Syrian golden hamster [4]): 10.47 mg/g | Activity (Syrian golden hamster [5]): 21.73 nmol/min/mg | Activity (Syrian golden hamster [6]): 0.063 nmol/min/mg | Activity (Syrian golden hamster [7]): 858.81 µg/g | Activity (Syrian golden hamster [8]): 38.48 µg/g | Activity (Syrian golden hamster [9]): 65.2 µg/g | Activity (Syrian golden hamster [10]): 0.057 nmol/min/mg | Activity (Syrian golden hamster [11]): 34 uU/ml | Activity (Syrian golden hamster [12]): 269.72 mg/dL | Activity (Syrian golden hamster [13]): 5.14 mg/g | Activity (Syrian golden hamster [14]): 80% | Activity (Syrian golden hamster [15]): 60% | Activity (Syrian golden hamster [16]): 0.2 µmol/g | Activity (Syrian golden hamster [17]): 51.66 mg/dL | Activity (Syrian golden hamster [18]): 0.59 µmol/g | Activity (Syrian golden hamster [19]): 258.79 µg/g | Activity (Syrian golden hamster [20]): 2.61 mg/g | Activity (Syrian golden hamster [21]): 53.79 µmol/g | Activity (Syrian golden hamster [22]): 7.92 mg/g | Activity (Syrian golden hamster [23]): 57.57 mg/dL | Activity (Syrian golden hamster [24]): 1.25 mg/g | Activity (Syrian golden hamster [25]): 5.6 µM/h | Activity (Syrian golden hamster [26]): 36.11 µM/h | Activity (Syrian golden hamster [27]): 3.61 nmol/min/mg | Activity (Syrian golden hamster [28]): 3.6 mg/g | Activity (Syrian golden hamster [29]): 0.066 µM/min | Activity (Syrian golden hamster [30]): 6.3 mg/g | Activity (Syrian golden hamster [31]): 960 µg/g | Activity (Syrian golden hamster [32]): 19% | Activity (Syrian golden hamster [33]): 28.49 mg/g
